Patent publication US11207312B2, “Metallo-beta-lactamase inhibitors and methods of use thereof” (priority 2017, dated 2021)

Legend:
NDM-1 = NDM-1 (Klebsiella pneumoniae, UniProt C7C422); assay: biochemical; assay type: biochemical; settings: CCF2-FA fluorescence assay, 2 hours at 25° C.
Summary of the method: (§1)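 IC50s come from 4-parameter fits of inhibition versus inhibitor concentration, tested from 20 μM down to 0.00063 μM. Enzyme, CCF2-FA (1.25 μM) and inhibitor react 2 h at 25° C, pH 7, with 10 μM ZnSO4 and 0.005% Tween-20.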

IMP-1 = IMP-1 (Serratia marcescens, UniProt P52699); assay: biochemical; settings: CCF2-FA fluorescence assay, 2 hours at 25° C.; read-out: IMP1 IC50
Summary of the method: as §1

VIM-1 = VIM-1 (Pseudomonas aeruginosa (strain ATCC 15692 / DSM 22644 / CIP 104116 / JCM 14847 / LMG 12228 / 1C / PRS 101 / PAO1), UniProt A0A0F7KYQ8); assay: biochemical; settings: CCF2-FA fluorescence assay, 2 hours at 25° C.; read-out: VIM1 IC50
Summary of the method: as §1

VIM-2 = VIM-2 (Escherichia coli, UniProt Q5U7L7); assay: biochemical; settings: CCF2-FA fluorescence assay; read-out: VIM2 IC50
[1] = system: Escherichia coli expressing NDM-1 (CLB30016); assay type: cell-based; settings: with imipenem 1 μg/ml; 95% inhibition of bacterial growth
Summary of the method: (§2)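 Clinical MBL-producing strains grown overnight at 35° C, diluted 1:100 into CAMHB, then exposed to test compound with imipenem at 1 μg/ml for 22–24 h at 35° C. Absorbance read-out; MITC95 is the lowest compound concentration giving 95% growth inhibition with imipenem.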

[2] = system: Klebsiella pneumoniae expressing VIM-1 (IHMA599644); assay type: cell-based; settings: with imipenem 1 μg/ml; 95% inhibition of bacterial growth
Summary of the method: as §2

[3] = system: Serratia marcescens expressing IMP-1 (CL5741); assay type: cell-based; settings: with imipenem 1 μg/ml; 95% inhibition of bacterial growth
Summary of the method: as §2

[4] = system: P. aeruginosa MB9798 (efflux+, IMP-1 plasmid); settings: for MB9798 MITC95 P. aeruginosa uM Efflux WT: efflux + (MB9798) strain, imipenem at 2 μg/mL, in the presence of a class A, C, D serine β-lactamase inhibitor closely related to relebactam; for Efflux ratio: fold difference between efflux+ (MB9798) and efflux− (MB9799) strains
Summary of the method: (§3)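 Isogenic P. aeruginosa PAO1 strains (efflux+ and multiple-efflux-pump-disrupted) carrying plasmid IMP-1, with inducible AmpC, tested by broth microdilution. Imipenem and/or ceftazidime fixed, usually at CLSI breakpoint, plus fixed class A/C β-lactamase inhibitor; titrated MBL inhibitor concentration restoring susceptibility recorded and compared between strains as efflux fold difference.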

[5] = system: P. aeruginosa MB9799 (efflux-, IMP-1 plasmid); assay type: cell-based, Pseudomonas aeruginosa; settings: efflux − (MB9799) strain; imipenem at 2 μg/mL; in the presence of a class A, C, D serine β-lactamase inhibitor closely related to relebactam
Summary of the method: as §3

IMP-1, sequence (P52699 whole entry, looked up, species assumed): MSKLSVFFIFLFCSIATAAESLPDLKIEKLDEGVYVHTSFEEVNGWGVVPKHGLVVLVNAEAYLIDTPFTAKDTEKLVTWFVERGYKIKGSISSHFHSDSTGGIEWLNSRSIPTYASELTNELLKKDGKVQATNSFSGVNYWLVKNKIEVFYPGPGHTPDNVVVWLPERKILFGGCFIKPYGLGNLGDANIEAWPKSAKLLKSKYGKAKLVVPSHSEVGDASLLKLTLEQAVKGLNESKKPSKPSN
NDM-1, sequence (C7C422 whole entry, looked up, species assumed): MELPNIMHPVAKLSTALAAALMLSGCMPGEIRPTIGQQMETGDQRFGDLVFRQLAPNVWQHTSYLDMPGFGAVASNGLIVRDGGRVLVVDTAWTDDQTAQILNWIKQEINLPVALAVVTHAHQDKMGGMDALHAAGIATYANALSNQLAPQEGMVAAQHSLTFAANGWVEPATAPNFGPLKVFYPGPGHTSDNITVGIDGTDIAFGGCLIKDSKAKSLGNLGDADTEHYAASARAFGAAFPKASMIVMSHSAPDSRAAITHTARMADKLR

| SMILES | IC50 (NDM-1) [nM] | IC50 (IMP-1) [nM] | IC50 (VIM-1) [nM] | IC50 (VIM-2) [nM] | CLB30016 E. coli MITC95 NDM [1] [µM] | IHMA599644 K. pneumoniae MITC95 VIM [2] [µM] | CL5741 S. marcescens MITC95 IMP [3] [µM] | MB9798 MITC95 P. aeruginosa uM Efflux WT [4] [µM] | Efflux ratio [4] | MB9799 MITC95 P. aeruginosa uM Efflux Mutant [5] [µM] |
| --- | --- | --- | --- | --- | --- | --- | --- | --- | --- | --- |
| CC(=O)N[C@H]1CCN(c2ccc(S(=O)(=O)N[C@@H]3CCNC3)c(S(N)(=O)=O)c2-c2nnn[nH]2)C1 [Example 83, N-[(3S)-1-{4-[(3R)-pyrrolidin-3-ylsulfamoyl]-3-sulfamoyl-2-(1H-tetrazol-5-yl)phenyl}pyrrolidin-3-yl]acetamide] | 4.98 | 15.9 | 2.11 | 2.82 | 6.25 | 12.50 | 3.13 | 12.50 | 4.00 | 3.13 |
| NC[C@@H](O)CNS(=O)(=O)c1ccc(N2CCC(CO)CC2)c(-c2nnn[nH]2)c1S(N)(=O)=O [Example 42, (R)-N1-(3-amino-2-hydroxypropyl)-4-(4-(hydroxymethyl)piperidin-1-yl)-3-(1H-tetrazol-5-yl)benzene-1,2-disulfonamide] | 0.45 | 0.47 | 0.16 | 0.71 | 3.13 | 6.25 | 3.13 | 1.56 | 1.00 | 1.56 |
| NS(=O)(=O)c1c(S(=O)(=O)C2CNC2)ccc(N2CCC(CCO)CC2)c1-c1nnn[nH]1 [Example 56, 6-(azetidin-3-ylsulfonyl)-3-[4-(2-hydroxyethyl)piperidin-1-yl]-2-(1H-tetrazol-5-yl)benzenesulfonamide] | 0.76 | 0.45 | 0.25 | 0.82 | 6.25 | 6.25 | 3.13 | 6.25 | 4.00 | 1.56 |
| NC[C@@H](O)CNS(=O)(=O)c1ccc(N2CC[C@@H](N)[C@@H](F)C2)c(-c2nn[nH]n2)c1S(N)(=O)=O [Example 207, N1-((R)-3-amino-2-hydroxypropyl)-4-((3S,4R)-4-amino-3-fluoropiperidin-1-yl)-3-(2H-tetrazol-5-yl)benzene-1,2-disulfonamide] | 15 | 25.2 | 0.86 | 25.6 | 0.39 | 0.78 | 0.20 | 1.56 | 1.00 | 1.56 |
| NCCC1CCN(c2ccc(S(=O)(=O)NC[C@H](O)CN)c(S(N)(=O)=O)c2-c2nn[nH]n2)CC1 [Example 24, (R)-N^1-(3-amino-2-hydroxypropyl)-4-(4-(2-aminoethyl)piperidin-1-yl)-3-(2H-tetrazol-5-yl)benzene-1,2-disulfonamide] | 5.09 | 5.79 | 0.45 | 5.6 | 1.56 | 6.25 | 3.13 | 1.56 | 1.00 | 1.56 |
| NS(=O)(=O)c1c(S(=O)(=O)N[C@@H]2CCNC2)ccc(N2CCC(O)CC2)c1-c1nnn[nH]1 [Example 63, 4-(4-hydroxypiperidin-1-yl)-N1-[(3R)-pyrrolidin-3-yl]-3-(1H-tetrazol-5-yl)benzene-1,2-disulfonamide] | 0.31 | 0.47 | 0.16 | 0.66 | 3.13 | 6.25 | 3.13 | 1.56 | 1.00 | 1.56 |
| COC(=O)C1CCN(c2ccc(S(=O)(=O)N[C@@H]3CCNC3)c(S(N)(=O)=O)c2-c2nn[nH]n2)CCN1.Cl (stereo partly drawn) [Example 164, Methyl 1-(4-(N-((R)-pyrrolidin-3-yl)sulfamoyl)-3-sulfamoyl-2-(2H-tetrazol-5-yl)phenyl)-1,4-diazepane-5-carboxylate hydrochloride] | 0.63 | 0.54 | 0.12 | 0.69 | 0.39 | 3.13 | 1.56 | 6.25 | 2.00 | 3.13 |
| NC(=O)C1CCN(c2ccc(S(=O)(=O)N[C@@H]3CCNC3)c(S(N)(=O)=O)c2-c2nnn[nH]2)C1 (stereo partly drawn) [Example 92, 1-{4-[(3R)-pyrrolidin-3-ylsulfamoyl]-3-sulfamoyl-2-(1H-tetrazol-5-yl)phenyl}pyrrolidine-3-carboxamide] | 0.38 | 0.31 | 0.3 | 0.74 | 0.78 | 3.13 | 1.56 | 1.56 | 1.00 | 1.56 |
| NC1CCN(c2ccc(S(=O)(=O)N[C@@H]3CCNC3)c(S(N)(=O)=O)c2-c2nnn[nH]2)CC1 [Example 73, 4-(4-aminopiperidin-1-yl)-N1-[(3R)-pyrrolidin-3-yl]-3-(1H-tetrazol-5-yl)benzene-1,2-disulfonamide] | 9.84 | 16.6 | 0.31 | 16.1 | 0.78 | 1.56 | 1.56 | 1.56 | 2.00 | 0.78 |
| NC[C@@H](O)CNS(=O)(=O)c1ccc(N2CCC(CC(N)=O)CC2)c(-c2nn[nH]n2)c1S(N)(=O)=O [Example 25, (R)-2-(1-(4-(N-(3-amino-2-hydroxypropyl)sulfamoyl)-3-sulfamoyl-2-(2H-tetrazol-5-yl)phenyl)piperidin-4-yl)acetamide] | 0.54 | 0.39 | 0.17 | 0.74 | 3.13 | 6.25 | 6.25 | 3.13 | 1.00 | 3.13 |
| NS(=O)(=O)c1c(S(=O)(=O)N[C@@H]2CCNC2)ccc(N2CC[C@H](O)C2)c1-c1nnn[nH]1 [Example 97, 4-[(3S)-3-hydroxypyrrolidin-1-yl]-N1-[(3R)-pyrrolidin-3-yl]-3-(1H-tetrazol-5-yl)benzene-1,2-disulfonamide] | 6.21 | 11.6 | 2.49 | 4.43 | 3.13 | 12.50 | 6.25 | 6.25 | 2.00 | 3.13 |
